Experimental data reported in paper PMC11378339, “Design, synthesis, and in vitro and in silico study of 1-benzyl-indole hybrid thiosemicarbazones as competitive tyrosinase inhibitors” (RSC Advances, 2024).

Tests used:
[1] = test system: mushroom tyrosinase; test: Tyrosinase inhibition assay (96-well, L-DOPA substrate, dopachrome at 480 nm); assay type: biochemical; conditions: for IC50: mean ± SEM, triplicate, substrate L-DOPA
Experimental: Using a spectrophotometer microplate reader, the 96-well plate tyrosinase inhibition experiment was performed by Masamoto et al.'s protocol.[65,66] […] Then, add 60 μL of phosphate buffer and 10 μL of mushroom tyrosinase (30 U mL^−1 in phosphate buffer) to the reaction mixture incubated for 10 min at 25 °C. Following incubation, 20 μL of substrate L-DOPA (0.5 mM) in phosphate buffer was added. The end product dopachrome formation was measured at 480 nm for continues 10 min with one min interval time using 96-well ELISA plate reader (Bio-Rad xMARK microplate spectrophotometer). All of the experiments were carried out in triplicate to account for potential mistakes, and the mean findings were reported in SEM. All of the in vitro experiment results, including % inhibition and IC50 values, were examined using EZ-Fit, an enzyme kinetics tool that fits curves (Perrella Scientific Inc., Amherst, USA).
The % inhibition was computed using the formula provided below.1 [drawing 39]
EZ-FIT (Perrella Scientific, Inc., USA) was used to calculate each tested compound's IC50 value. All the experiments were performed in triplicate to reduce predicted errors, and differences in the outcomes are expressed as Standard Error of Mean values (SEM).2 [drawing 40]

[2] = target: mushroom tyrosinase; test: Kinetic analysis of tyrosinase inhibition (Lineweaver-Burk, Dixon plot); assay type: biochemical; conditions: substrate L-Dopa 0.1-0.8 mM
Experimental: Four distinct doses of the substrate L-Dopa 0.1, 0.2, 0.4, and 0.8 mM were used in the kinetic analysis. The in vitro mechanistic study was carried out by following a similar inhibitory procedure with a similar experimental temperature and time period. […]

| SMILES | Percent inhibition (0.5 mM) [1] [%] | IC50 [1] [µM] | melting point [°C] | Ki [2] [µM] | type of inhibition [2] |
| --- | --- | --- | --- | --- | --- |
| COc1ccc(NC(=S)N/N=C/c2cn(Cc3ccccc3)c3ccccc23)cc1 [Compound 5a, (E)-2-[(1-benzyl-1H-indol-3-yl)methylene]-N-(4-methoxyphenyl)hydrazinecarbothioamide] | 87.15 | 24.2 ± 0.38 |  |  |  |
| S=C(NCCc1ccccc1)N/N=C/c1cn(Cc2ccccc2)c2ccccc12 [Compound 5b, (E)-2-[(1-benzyl-1H-indol-3-yl)methylene]-N-phenethylhydrazinecarbothioamide] | 78.35 | 45.4 ± 0.75 | 198 to 201 |  |  |
| Cc1cccc(C)c1NC(=S)N/N=C/c1cn(Cc2ccccc2)c2ccccc12 [Compound 5c, (E)-2-[(1-benzyl-1H-indol-3-yl)methylene]-N-(2,6-dimethylphenyl)hydrazinecarbo thioamide] | 85.66 | 27.4 ± 0.6 |  |  |  |
| Fc1ccc(NC(=S)N/N=C/c2cn(Cc3ccccc3)c3ccccc23)cc1 [Compound 5d, (E)-2-[(1-benzyl-1H-indol-3-yl)methylene]-N-(4-fluorophenyl)hydrazinecarbothioamide] | 90.47 | 16.8 ± 0.38 |  |  |  |
| S=C(NCc1ccc(Cl)cc1)N/N=C/c1cn(Cc2ccccc2)c2ccccc12 [Compound 5e, (E)-2-[(1-benzyl-1H-indol-3-yl)methylene]-N-(4-chlorobenzyl)hydrazinecarbothioamide] | 84.73 | 33.6 ± 1.1 | 225 to 227 |  |  |
| S=C(N/N=C/c1cn(Cc2ccccc2)c2ccccc12)Nc1cccc(Cl)c1Cl [Compound 5f, (E)-2-[(1-benzyl-1H-indol-3-yl)methylene]-N-(2,3-dichlorophenyl)hydrazinecarbo thioamide] | 90.83 | 15.3 ± 0.37 | 213 to 215 |  |  |
| S=C(N/N=C/c1cn(Cc2ccccc2)c2ccccc12)Nc1ccccc1 [Compound 5g, (E)-2-[(1-benzyl-1H-indol-3-yl)methylene]-N-phenylhydrazinecarbothioamide] | 81.47 | 38.3 ± 1.34 |  |  |  |
| Cc1ccc(NC(=S)N/N=C/c2cn(Cc3ccccc3)c3ccccc23)c(C)c1 [Compound 5h, (E)-2-[(1-benzyl-1H-indol-3-yl)methylene]-N-(2,4-dimethylphenyl)hydrazinecarbo thioamide] | 83.76 | 29.7 ± 0.72 | 180 to 182 |  |  |
| S=C(NCc1ccccc1)N/N=C/c1cn(Cc2ccccc2)c2ccccc12 [Compound 5i, (E)-N-benzyl-2-[(1-benzyl-1H-indol-3-yl)methylene]hydrazinecarbothioamide] | 82.71 | 36.7 ± 1.48 | 193 to 195 |  |  |
| S=C(N/N=C/c1cn(Cc2ccccc2)c2ccccc12)Nc1ccc(Br)cc1 [Compound 5j, (E)-2-[(1-benzyl-1H-indol-3-yl)methylene]-N-(4-bromophenyl)hydrazinecarbothioamide] | 84.19 | 26.8 ± 0.29 |  |  |  |
| Cc1ccc(CNC(=S)N/N=C/c2cn(Cc3ccccc3)c3ccccc23)cc1 [Compound 5k, (E)-2-[(1-benzyl-1H-indol-3-yl)methylene]-N-(4-methylbenzyl)hydrazinecarbothioamide] | 90.84 | 12.4 ± 0.26 | 223 to 225 | 10.2 ± 0.006 | competitive |
| COc1cccc(NC(=S)N/N=C/c2cn(Cc3ccccc3)c3ccccc23)c1 [Compound 5l, (E)-2-[(1-benzyl-1H-indol-3-yl)methylene]-N-(3-methoxyphenyl)hydrazinecarbothioamide] | 84.39 | 31.6 ± 1.26 |  |  |  |
| Cc1cc(C)cc(NC(=S)N/N=C/c2cn(Cc3ccccc3)c3ccccc23)c1 [Compound 5m, (E)-2-[(1-benzyl-1H-indol-3-yl)methylene]-N-(3,5-dimethylphenyl)hydrazine carbo thioamide] | 76.35 | 47.2 ± 1.27 | 221 to 223 |  |  |
| Cc1ccc(NC(=S)N/N=C/c2cn(Cc3ccccc3)c3ccccc23)cc1 [Compound 5n, (E)-2-[(1-benzyl-1H-indol-3-yl)methylene]-N-(p-tolyl)hydrazinecarbothioamide] | 86.54 | 26.1 ± 0.47 | 221 to 223 |  |  |
| O=[N+]([O-])c1cccc(NC(=S)N/N=C/c2cn(Cc3ccccc3)c3ccccc23)c1 [Compound 5o, (E)-2-[(1-benzyl-1H-indol-3-yl)methylene]-N-(3-nitrophenyl)hydrazinecarbothioamide] | 91.34 | 17.1 ± 0.28 |  |  |  |
| CNC(=S)N/N=C/c1cn(Cc2ccccc2)c2ccccc12 [Compound 5p, (E)-2-[(1-benzyl-1H-indol-3-yl)methylene]-N-methylhydrazinecarbothioamide] | 46.20 |  | 220 to 221 |  |  |
| O=[N+]([O-])c1ccc(NC(=S)N/N=C/c2cn(Cc3ccccc3)c3ccccc23)cc1 [Compound 5q, (E)-2-[(1-benzyl-1H-indol-3-yl)methylene]-N-(4-nitrophenyl)hydrazinecarbothioamide] | 91.53 | 15.3 ± 0.3 | 223 to 225 |  |  |
| S=C(N/N=C/c1cn(Cc2ccccc2)c2ccccc12)Nc1cccc2ccccc12 [Compound 5r, (E)-2-[(1-benzyl-1H-indol-3-yl)methylene]-N-(naphthalen-1-yl)hydrazinecarbothioamide] | 77.86 | 34.6 ± 0.81 | 199 to 201 |  |  |
